PubChem BioAssay AID248 (DTP/NCI, 2004)
Values joined by “and” are separate entries in the source; they are usually repeats but may differ in a detail not shown here. Identical values can stand only once. Inconclusive results and toxic doses are left out. Rule as the data show it: active = T/C of 150% or more; inactive = T/C below 125%.

System: L1210 leukemia ip in BDF1 mice, survival T/C
Test: NCI In Vivo Anticancer Drug Screen. Data for tumor model L1210 Leukemia (intraperitoneal) in B6D2F1 (BDF1) mice
Settings: endpoint: mean survival time, higher = longer survival
In short: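 Read-out is survival time, reported as the treated-group measurement over the vehicle-control measurement.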

[1] = dose: 75.0 mg/kg/injection, schedule: Q01DX001 (ip), vehicle: other
[2] = dose: 100.0 mg/kg/injection, schedule: Q01DX001 (ip), vehicle: saline
[3] = dose: 200.0 mg/kg/injection, schedule: Q01DX001 (ip), vehicle: saline
[4] = dose: 100.0 mg/kg/injection, schedule: Q01DX001 (ip), vehicle: carboxymethylcellulose (CMC)
[5] = dose: 200.0 mg/kg/injection, schedule: Q01DX001 (ip), vehicle: carboxymethylcellulose (CMC)
[6] = dose: 400.0 mg/kg/injection, schedule: Q01DX001 (ip), vehicle: carboxymethylcellulose (CMC)
[7] = dose: 100.0 mg/kg/injection, schedule: Q01DX009 (ip), vehicle: Klucel (hydroxypropylcellulose) (HPC)
[8] = dose: 100.0 mg/kg/injection, schedule: Q04DX003 (ip), vehicle: Klucel (hydroxypropylcellulose) (HPC)
[9] = dose: 200.0 mg/kg/injection, schedule: Q01DX009 (ip), vehicle: Klucel (hydroxypropylcellulose) (HPC)
[10] = dose: 200.0 mg/kg/injection, schedule: Q04DX003 (ip), vehicle: Klucel (hydroxypropylcellulose) (HPC)
[11] = dose: 400.0 mg/kg/injection, schedule: Q04DX003 (ip), vehicle: Klucel (hydroxypropylcellulose) (HPC)
[12] = dose: 100.0 mg/kg/injection, schedule: Q01DX009 (ip), vehicle: saline
[13] = dose: 100.0 mg/kg/injection, schedule: Q04DX003 (ip), vehicle: saline with Tween-80
[14] = dose: 200.0 mg/kg/injection, schedule: Q04DX003 (ip), vehicle: saline with Tween-80
[15] = dose: 400.0 mg/kg/injection, schedule: Q04DX003 (ip), vehicle: saline with Tween-80
[16] = dose: 400.0 mg/kg/injection, schedule: Q01DX001 (ip), vehicle: saline
[17] = dose: 100.0 mg/kg/injection, schedule: Q01DX001 (ip), vehicle: Klucel (hydroxypropylcellulose) (HPC)
[18] = dose: 200.0 mg/kg/injection, schedule: Q01DX001 (ip), vehicle: Klucel (hydroxypropylcellulose) (HPC)

Measured: T/C

NC(=S)N/N=C/c1ccns1
inactive: dose: 100.0 mg/kg/injection, schedule: Q04DX002 (ip), vehicle: saline with Tween-80 109 % of control | dose: 200.0 mg/kg/injection, schedule: Q04DX002 (ip), vehicle: saline with Tween-80 97 % of control | dose: 400.0 mg/kg/injection, schedule: Q04DX002 (ip), vehicle: saline with Tween-80 103 % of control

C[N+]1(C)C2CC(OC(=O)C(CO)c3ccccc3)CC1C1OC12 (centres undefined)
inactive: [1] 106 % of control

O=C(N/N=C\c1cc(=O)[nH]c(=O)[nH]1)c1ccncc1
inactive: dose: 50.0 mg/kg/injection, schedule: Q01DX001 (ip), vehicle: saline 90 % of control | [2] 95 % of control | [3] 95 % of control

ClC1C2C=CC1CC2 (centres undefined)
inactive: [4] 90 % of control | [5] 90 % of control | [6] 93 % of control

CC(=O)OCC1OC(S[As](C)C)C(OC(C)=O)C(OC(C)=O)C1OC(C)=O (centres undefined)
inactive: [7] 101 % of control | [8] 101 % of control | [9] 103 % of control | [10] 100 % of control | [11] 100 % of control

CN(C)c1ccc(C(C#N)=C(C#N)C#N)cc1
inactive: dose: 100.0 mg/kg/injection, schedule: Q01DX001 (ip), vehicle: acetone 96 % of control | dose: 100.0 mg/kg/injection, schedule: Q01DX009 (ip), vehicle: acetone 97 % of control | dose: 200.0 mg/kg/injection, schedule: Q01DX001 (ip), vehicle: acetone 99 % of control | dose: 200.0 mg/kg/injection, schedule: Q01DX009 (ip), vehicle: acetone 97 % of control | dose: 400.0 mg/kg/injection, schedule: Q01DX001 (ip), vehicle: acetone 94 % of control

C/C=C/c1nc2c(c(=O)n(C)c(=O)n2C)n1C
inactive: dose: 50.0 mg/kg/injection, schedule: Q01DX001 (ip), vehicle: carboxymethylcellulose (CMC) 106 % of control | [4] 95 % of control | [5] 103 % of control | [6] 97 % of control

CCC(=O)NCC1(c2ccccc2)CCN(CC2COc3ccccc3O2)CC1 (centres undefined)
inactive: dose: 25.0 mg/kg/injection, schedule: Q01DX009 (ip), vehicle: saline 108 % of control | dose: 50.0 mg/kg/injection, schedule: Q01DX009 (ip), vehicle: saline 100 % of control | [12] 93 % of control | dose: 100.0 mg/kg/injection, schedule: Q04DX003 (ip), vehicle: saline 102 % of control

CC(C)(C)C(=O)CC(=O)C(C)(C)C.CC(C)(C)C(=O)CC(=O)C(C)(C)C.CC(C)(C)C(=O)CC(=O)C(C)(C)C.[Gd]
inactive: [13] 101 % of control | [14] 101 % of control | [15] 92 % of control

C/C(CCc1c[nH]c2ccccc12)=N\O
inactive: dose: 100.0 mg/kg/injection, schedule: Q04DX003 (sc), vehicle: olive oil, sesame oil, peanut oil 98 % of control | dose: 200.0 mg/kg/injection, schedule: Q04DX003 (sc), vehicle: olive oil, sesame oil, peanut oil 98 % of control | dose: 400.0 mg/kg/injection, schedule: Q04DX003 (sc), vehicle: olive oil, sesame oil, peanut oil 104 % of control

O=C(N/N=C\c1ccccc1Cl)C(=O)N/N=C\c1ccccc1Cl
inactive: [13] 94 % of control | [14] 94 % of control | [15] 88 % of control

CCC(=O)/C=C/c1ccc([N+](=O)[O-])cc1
inactive: dose: 100.0 mg/kg/injection, schedule: Q04DX003 (ip), vehicle: other 101 % of control | dose: 200.0 mg/kg/injection, schedule: Q04DX003 (ip), vehicle: other 93 % of control | dose: 400.0 mg/kg/injection, schedule: Q04DX003 (ip), vehicle: other 93 % of control

CNC(=O)Oc1ccc(Br)cc1Br
inactive: [7] 101 % of control | [9] 100 % of control

CCC[Si](C)(C)CCC
inactive: [2] 100 % of control | [3] 98 % of control | [16] 100 % of control

NC(=S)N/N=C/c1ccccc1
inactive: [1] 103 % of control | dose: 150.0 mg/kg/injection, schedule: Q01DX001 (ip), vehicle: other 105 % of control

NCCCC(=O)NC(Cc1cnc[nH]1)C(=O)O (centres undefined)
inactive: [2] 95 % of control | [3] 97 % of control | [16] 92 % of control

CCCCCCCCCCCC(=O)NC(=S)Nc1ccccc1C(F)(F)F
inactive: [8] 104 % of control | [10] 92 % of control | [11] 92 % of control

Cc1nc(N)[nH]c(=O)c1CCCNC(=O)CCl (tested in a mixture with another compound)
inactive: dose: 50.0 mg/kg/injection, schedule: Q01DX001 (ip), vehicle: Klucel (hydroxypropylcellulose) (HPC) 114 % of control | [17] 108 % of control | [18] 100 % of control

NCCCC1C2CCC(C2)C1CN (centres undefined)
inactive: dose: 100.0 mg/kg/injection, schedule: Q04DX002 (ip), vehicle: alcohol 98 % of control

CN1C(c2ccccc2)(c2ccccc2)c2ccccc2S1(=O)=O
inactive: [4] 95 % of control | [5] 95 % of control | [6] 93 % of control

CN1CCC/C1=N\c1nn[nH]n1
inactive: [17] 106 % of control | [18] 97 % of control | dose: 400.0 mg/kg/injection, schedule: Q01DX001 (ip), vehicle: Klucel (hydroxypropylcellulose) (HPC) 93 % of control

COc1cc2c(c(OC)c1OC)-c1ccc(SCc3ccccc3)c(=O)cc1[C@@H](NC(C)=O)CC2
inactive: dose: 6.25 mg/kg/injection, schedule: Q01DX009 (ip), vehicle: Klucel (hydroxypropylcellulose) (HPC) 106 % of control | dose: 8.2 mg/kg/injection, schedule: Q01DX009 (ip), vehicle: Klucel (hydroxypropylcellulose) (HPC) 121 % of control | dose: 12.5 mg/kg/injection, schedule: Q01DX009 (ip), vehicle: Klucel (hydroxypropylcellulose) (HPC) 124 % of control | dose: 18.0 mg/kg/injection, schedule: Q01DX009 (ip), vehicle: Klucel (hydroxypropylcellulose) (HPC) 101 % of control | dose: 25.0 mg/kg/injection, schedule: Q01DX009 (ip), vehicle: Klucel (hydroxypropylcellulose) (HPC) 115 % of control and 92 % of control

CC1=CCC2(C)C(=O)C1CC1=C2CC(C)(C)CC1=O (centres undefined)
inactive: [12] 92 % of control | [8] 101 % of control | dose: 200.0 mg/kg/injection, schedule: Q01DX009 (ip), vehicle: saline 94 % of control | [10] 98 % of control | dose: 400.0 mg/kg/injection, schedule: Q01DX009 (ip), vehicle: saline 101 % of control | [11] 98 % of control

Nc1ccc(NC(=O)C(=O)O)cc1
inactive: [13] 97 % of control | [14] 88 % of control

CCOC(=O)CNc1cccc(F)c1C
inactive: dose: 100.0 mg/kg/injection, schedule: Q04DX002 (ip), vehicle: Klucel (hydroxypropylcellulose) (HPC) 104 % of control | dose: 200.0 mg/kg/injection, schedule: Q04DX002 (ip), vehicle: Klucel (hydroxypropylcellulose) (HPC) 104 % of control | dose: 400.0 mg/kg/injection, schedule: Q04DX002 (ip), vehicle: Klucel (hydroxypropylcellulose) (HPC) 115 % of control
